Legend:
[1] = molecular target: Ubiquitin carboxyl-terminal hydrolase 7 (Homo sapiens, UniProt Q93009); assay: Inhibition of His6-tagged USP7 (208 to 1102 residues) (unknown origin) using ubiquitin-rhodamine110 as substrate preincubated for 30 mins followed by substrate addition measured after 20 mins by fluorescence assay
[2] = molecular target: Potassium voltage-gated channel subfamily A member 5 (Homo sapiens) (UniProt P22460); assay: Inhibition of human Kv1.5 expressed in mouse L929 cells assessed as reduction in channel current at 0.3 uM by patch clamp method relative to control; type: cell-based
Chain of Potassium voltage-gated channel subfamily A member 5 (Homo sapiens) (P22460 whole entry): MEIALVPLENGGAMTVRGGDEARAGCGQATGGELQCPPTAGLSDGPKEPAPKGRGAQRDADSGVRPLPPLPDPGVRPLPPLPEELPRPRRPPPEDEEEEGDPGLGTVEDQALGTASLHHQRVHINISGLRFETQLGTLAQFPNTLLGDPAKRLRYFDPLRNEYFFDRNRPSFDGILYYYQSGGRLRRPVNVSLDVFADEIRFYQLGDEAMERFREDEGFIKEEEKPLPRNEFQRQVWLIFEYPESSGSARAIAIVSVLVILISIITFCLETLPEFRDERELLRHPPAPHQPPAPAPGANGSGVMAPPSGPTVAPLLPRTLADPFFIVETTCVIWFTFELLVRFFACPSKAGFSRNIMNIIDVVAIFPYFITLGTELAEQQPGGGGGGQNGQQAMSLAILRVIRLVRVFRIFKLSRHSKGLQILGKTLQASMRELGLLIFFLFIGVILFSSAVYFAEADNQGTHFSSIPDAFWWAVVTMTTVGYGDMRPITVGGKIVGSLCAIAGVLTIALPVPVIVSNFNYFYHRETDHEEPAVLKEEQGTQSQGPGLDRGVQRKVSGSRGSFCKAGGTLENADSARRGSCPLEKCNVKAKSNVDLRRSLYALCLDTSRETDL

Chain of Ubiquitin carboxyl-terminal hydrolase 7 (Q93009 whole entry, the tested form may be a part): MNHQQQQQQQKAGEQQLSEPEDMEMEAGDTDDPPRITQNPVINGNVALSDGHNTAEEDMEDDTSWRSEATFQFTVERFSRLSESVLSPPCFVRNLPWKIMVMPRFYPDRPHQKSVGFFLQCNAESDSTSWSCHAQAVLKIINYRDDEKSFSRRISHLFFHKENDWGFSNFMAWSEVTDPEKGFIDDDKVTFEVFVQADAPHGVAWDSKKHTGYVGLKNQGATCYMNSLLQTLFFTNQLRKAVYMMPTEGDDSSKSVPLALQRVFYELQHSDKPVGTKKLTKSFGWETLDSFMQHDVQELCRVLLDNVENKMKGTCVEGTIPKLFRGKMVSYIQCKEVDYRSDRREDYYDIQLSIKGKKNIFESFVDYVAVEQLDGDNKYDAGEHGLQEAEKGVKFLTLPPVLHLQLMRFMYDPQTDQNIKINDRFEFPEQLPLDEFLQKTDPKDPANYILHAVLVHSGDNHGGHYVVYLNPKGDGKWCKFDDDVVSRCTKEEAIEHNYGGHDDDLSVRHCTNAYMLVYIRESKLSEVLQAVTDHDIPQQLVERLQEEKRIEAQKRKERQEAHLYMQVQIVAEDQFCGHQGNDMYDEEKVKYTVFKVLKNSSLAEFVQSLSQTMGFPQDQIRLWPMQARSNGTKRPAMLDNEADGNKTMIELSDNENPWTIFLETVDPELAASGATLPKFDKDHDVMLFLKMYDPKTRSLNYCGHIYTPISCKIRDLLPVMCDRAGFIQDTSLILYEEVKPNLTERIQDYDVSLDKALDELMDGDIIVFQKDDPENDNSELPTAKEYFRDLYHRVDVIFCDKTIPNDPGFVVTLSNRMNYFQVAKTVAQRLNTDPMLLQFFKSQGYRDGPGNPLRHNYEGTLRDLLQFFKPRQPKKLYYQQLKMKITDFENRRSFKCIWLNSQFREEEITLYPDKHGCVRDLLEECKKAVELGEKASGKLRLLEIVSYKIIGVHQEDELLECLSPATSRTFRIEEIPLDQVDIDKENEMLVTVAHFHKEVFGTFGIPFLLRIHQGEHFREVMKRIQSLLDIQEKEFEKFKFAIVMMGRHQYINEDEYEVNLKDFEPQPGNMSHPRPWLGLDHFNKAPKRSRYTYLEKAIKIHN

Row | IC50 [1] [µM] | inhibition [2] [%] | SMILES
1 | < 0.2 |  | C[C@H](CC(=O)N1CCC(O)(Cn2cnn3cccc3c2=O)CC1)c1ccccc1
2 |  | > 95 | NS(=O)(=O)c1cncc(-c2nc(NCc3ccccc3)c3c(-c4ccccc4)ccn3n2)c1
